# Data published in US20160194358A1, “LINEAR PEPTIDE ANTIBIOTCS” (priority 2013, published 2016).
# Like-named read-outs stand apart in the source and are kept apart here. Where a SMILES comes first, the peptide text is derived from it. [ ]: non-standard residue; d: D form. The star is where a group is joined. boroAla((+)-pinanediol) = C[C@H](N*)B1O[C@@H]2C[C@@H]3C[C@@H](C3(C)C)[C@]2(C)O1; Benzoyl(4-(4-Cl-Ph)) = O=C(c1ccc(-c2ccc(Cl)cc2)cc1)*; Propanoyl(3-decylamino) = CCCCCCCCCCNCCC(=O)*; X12 = C[C@H](N*)C(=O)c1nc2ccccc2o1; Dap = NC[C@H](N)C(=O)O
# Key:
# [1] = test system: Escherichia coli strain MC4100 IMP-4213, which harbors an LptD mutation; settings: E. coli MC4100 IMP-4213; 35° C., 22 hours
# Summary of the method: (§1)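 CLSI broth microdilution in cation-adjusted Mueller Hinton Broth with 0.002% Tween-80, two-fold dilutions starting at 64 μg/ml.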
# [2] = test system: methicillin resistant Staphylococcus aureus (MRSA) strain USA300 (NRS384); settings: MRSA USA300 (NRS384); 35° C., 22 hours
# Summary of the method: as §1
# E. coli SPase = molecular target: T1, E. coli SPase (Escherichia coli, UniProt P00803); experiment: Biochemical SPase activity assay, fluorogenic peptide substrate, E. coli enzyme; settings: 20 μM substrate, 10 minutes preincubation, read-out: IC 50 (nM) E. coli
# T1 construct: Full length His-tagged E. coli SPase proteins; His; made in house; host or cells: E. coli BL21(DE3)
# S. aureus SPase = S. aureus SPase (Staphylococcus aureus, UniProt P0A070); experiment: biochemical; settings: IC 50 (nM) S. aureus, 20 μM substrate, 10 minutes preincubation
# MRSA strain USA300 [3] = settings: 0.5 ug/mL imipenem plus 0.125 ug/mL Compound 217
# Experimental: Time-kill experiments were performed in 96-well incubation plates using Mueller Hinton II Broth+0.002% Tween-80 as the growth media. Individual wells contained imipenem alone, Compound 217 alone, or a combination of both agents at various concentrations. MRSA strain USA300 was grown overnight at 35° C. on Mueller Hinton Agar plates, and colonies were suspended in Mueller Hinton II Broth+0.002% Tween-80 to a final density of 2*10^8 cfu/mL. To each well of the incubation plates, 5 uL of this suspension were added, resulting in an initial density of 1*10^7 cfu/mL. Plates were incubated at 35° C., and at various time points 30 μl samples were removed, mixed 1:1 with 25 mg/ml activated carbon, serially diluted in sterile phosphate buffered saline supplemented with 0.05% Tween 20, and spotted onto Mueller Hinton Agar plates to enable cfu quantification. Colonies were counted and the cfu/ml at each time point calculated by based on the dilution factor and volume spotted.
# MRSA strain USA300 [4] = settings: Compound 217 with imipenem, synergy defined as sum of FICs ≦0.5
# Experimental: In this assay in each axis of a 96-well plate contains a 2-fold dilution of a given agent, such that each well contains a unique combination of the agents being tested.
# To create a checkerboard dilution scheme, imipenem was diluted in Mueller Hinton II Broth+0.002% Tween-80 to twice the final desired concentration, and six 2-fold serial dilutions were performed in the same media yielding seven imipenem concentrations. Dilutions of Compound 217 were prepared similarly except that ten dilutions were performed for a total of eleven concentrations. For each concentration of imipenem, 50 uL aliquots were transferred to columns 1-12 of a given row of a 96-well clear polypropylene assay plate. For each concentration of Compound 217, 50 uL were transferred to rows A-H of a given column of the same plate. […]
# MRSA strain USA300 was grown overnight at 35° C. on Mueller Hinton Agar plates, and colonies were suspended in Mueller Hinton II Broth+0.002% Tween-80 to a final density of 1*10^7 cfu/ml. […] The plate was incubated at 35° C. for 22 hours after which growth was determined via visual inspection. For each sub-MIC concentration of imipenem, the concentration of Compound 217 required to prevent visible growth was recorded, and the fractional inhibitor concentration (FIC) of each agent was calculated by dividing the concentration of each agent by MIC of the agent alone. […]
# MRSA strain USA300 [5] = test system: MRSA strain USA300
# [6] = MRSA USA300, partner Amoxicillin/Clav at 1/4x its MIC
# [7] = MRSA USA300, partner Ampicillin at 1/4x its MIC
# [8] = MRSA USA300, partner Azlocillin at 1/4x its MIC
# [9] = MRSA USA300, partner Biapenem at 1/4x its MIC
# [10] = MRSA USA300, partner Carbenicillin at 1/4x its MIC
# [11] = MRSA USA300, partner Cefaclor at 1/4x its MIC
# [12] = MRSA USA300, partner Cefamandole at 1/4x its MIC
# [13] = MRSA USA300, partner Cefazolin at 1/4x its MIC
# [14] = MRSA USA300, partner Cefdinir at 1/4x its MIC
# [15] = MRSA USA300, partner Cefepime at 1/4x its MIC
# [16] = MRSA USA300, partner Cefixime at 1/4x its MIC
# [17] = MRSA USA300, partner Cefmetazole at 1/4x its MIC
# [18] = MRSA USA300, partner Cefonicid at 1/4x its MIC
# [19] = MRSA USA300, partner Cefotaxime at 1/4x its MIC
# [20] = MRSA USA300, partner Cefotetan at 1/4x its MIC
# [21] = MRSA USA300, partner Cefoxitin at 1/4x its MIC
# [22] = MRSA USA300, partner Cefpodoxime at 1/4x its MIC
# [23] = MRSA USA300, partner Cefprozil at 1/4x its MIC
# [24] = MRSA USA300, partner Ceftazidime at 1/4x its MIC
# [25] = MRSA USA300, partner Ceftizoxime at 1/4x its MIC
# [26] = MRSA USA300, partner Ceftriaxone at 1/4x its MIC
# [27] = MRSA USA300, partner Cephalothin at 1/4x its MIC
# [28] = MRSA USA300, partner Doripenem at 1/4x its MIC
# [29] = MRSA USA300, partner Ertapenem at 1/4x its MIC
# [30] = MRSA USA300, partner Faropenem at 1/4x its MIC
# [31] = MRSA USA300, partner Imipenem at 1/4x its MIC
# [32] = MRSA USA300, partner Mecillinam at 1/4x its MIC
# [33] = MRSA USA300, partner Meropenem at 1/4x its MIC
# [34] = MRSA USA300, partner Methicillin at 1/4x its MIC
# [35] = MRSA USA300, partner Mezlocillin at 1/4x its MIC
# [36] = MRSA USA300, partner Moxalactam at 1/4x its MIC
# [37] = MRSA USA300, partner Oxacillin at 1/4x its MIC
# [38] = MRSA USA300, partner Piperacillin/tazobactam at 1/4x its MIC
# [39] = MRSA USA300, partner Ticarcillin at 1/4x its MIC
# S. aureus SPase, sequence (P0A070 whole entry): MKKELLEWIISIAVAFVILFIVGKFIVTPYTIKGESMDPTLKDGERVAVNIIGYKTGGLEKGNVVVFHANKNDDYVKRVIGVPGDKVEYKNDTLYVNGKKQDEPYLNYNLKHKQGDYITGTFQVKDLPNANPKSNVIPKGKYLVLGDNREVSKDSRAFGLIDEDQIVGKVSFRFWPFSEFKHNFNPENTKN
# T1 sequence (P00803 whole entry): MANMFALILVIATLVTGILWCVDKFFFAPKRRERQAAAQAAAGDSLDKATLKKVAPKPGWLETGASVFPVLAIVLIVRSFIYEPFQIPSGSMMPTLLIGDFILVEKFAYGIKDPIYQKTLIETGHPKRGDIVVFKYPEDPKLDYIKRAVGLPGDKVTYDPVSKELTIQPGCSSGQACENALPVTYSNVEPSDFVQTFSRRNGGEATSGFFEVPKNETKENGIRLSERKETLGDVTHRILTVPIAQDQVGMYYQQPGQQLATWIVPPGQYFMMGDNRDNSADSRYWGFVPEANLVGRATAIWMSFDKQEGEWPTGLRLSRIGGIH
smiles,measurement,setting,value
C[C@H](NC(=O)[C@@H](NC(=O)[C@H](CN)NC(=O)c1ccc(-c2ccc(Cl)cc2)cc1)[C@@H](C)O)C(=O)N[C@@H](CCCCN)C(=O)N[C@@H](C)C(=O)c1nc2ccccc2o1 [Compound 214] ({Benzoyl(4-(4-Cl-Ph))}-[Dap]TAK-X12),MIC (μg/mL) E. coli,[1],32 µg/mL
same,MIC (μg/mL) S. aureus,[2],64 µg/mL
same,IC50,E. coli SPase,180 nM
same,IC50,S. aureus SPase,630 nM
CCCCCCCCCCNCCC(=O)N[C@@H](CCCCN)C(=O)N[C@H](C(=O)N[C@@H](C)C(=O)N[C@@H](CCCCN)C(=O)N[C@@H](C)B1O[C@@H]2C[C@@H]3C[C@@H](C3(C)C)[C@]2(C)O1)[C@@H](C)O [Compound 217] ({Propanoyl(3-decylamino)}-KTAK-{boroAla((+)-pinanediol)}),MIC (μg/mL) E. coli,[1],23 µg/mL
same,MIC (μg/mL) S. aureus,[2],0.31 µg/mL
same,"time-kill: reduction of viable cells, combination vs either agent alone",MRSA strain USA300 [3],synergistic
same,sum of the FICs,MRSA strain USA300 [4],< 0.5
same,Compound 217 SIC,MRSA strain USA300 [5]; [6],0.125 µg/mL
same,Fold reduction in Compound 217 MIC,MRSA strain USA300 [5]; [6],4
same,Compound 217 SIC,MRSA strain USA300 [5]; [7],0.25 µg/mL
same,Fold reduction in Compound 217 MIC,MRSA strain USA300 [5]; [7],2
same,Compound 217 SIC,MRSA strain USA300 [5]; [8],0.125 µg/mL
same,Fold reduction in Compound 217 MIC,MRSA strain USA300 [5]; [8],4
same,Compound 217 SIC,MRSA strain USA300 [5]; [9],0.0156 µg/mL
same,Fold reduction in Compound 217 MIC,MRSA strain USA300 [5]; [9],32
same,Compound 217 SIC,MRSA strain USA300 [5]; [10],0.125 µg/mL
same,Fold reduction in Compound 217 MIC,MRSA strain USA300 [5]; [10],4
same,Compound 217 SIC,MRSA strain USA300 [5]; [11],0.125 µg/mL
same,Fold reduction in Compound 217 MIC,MRSA strain USA300 [5]; [11],4
same,Compound 217 SIC,MRSA strain USA300 [5]; [12],0.125 µg/mL
same,Fold reduction in Compound 217 MIC,MRSA strain USA300 [5]; [12],4
same,Compound 217 SIC,MRSA strain USA300 [5]; [13],0.0625 µg/mL
same,Fold reduction in Compound 217 MIC,MRSA strain USA300 [5]; [13],8
same,Compound 217 SIC,MRSA strain USA300 [5]; [14],0.0078 µg/mL
same,Fold reduction in Compound 217 MIC,MRSA strain USA300 [5]; [14],64
same,Compound 217 SIC,MRSA strain USA300 [5]; [15],0.03125 µg/mL
same,Fold reduction in Compound 217 MIC,MRSA strain USA300 [5]; [15],16
same,Compound 217 SIC,MRSA strain USA300 [5]; [16],0.0625 µg/mL
same,Fold reduction in Compound 217 MIC,MRSA strain USA300 [5]; [16],8
same,Compound 217 SIC,MRSA strain USA300 [5]; [17],0.125 µg/mL
same,Fold reduction in Compound 217 MIC,MRSA strain USA300 [5]; [17],4
same,Compound 217 SIC,MRSA strain USA300 [5]; [18],0.125 µg/mL
same,Fold reduction in Compound 217 MIC,MRSA strain USA300 [5]; [18],4
same,Compound 217 SIC,MRSA strain USA300 [5]; [19],0.0625 µg/mL
same,Fold reduction in Compound 217 MIC,MRSA strain USA300 [5]; [19],8
same,Compound 217 SIC,MRSA strain USA300 [5]; [20],0.125 µg/mL
same,Fold reduction in Compound 217 MIC,MRSA strain USA300 [5]; [20],4
same,Compound 217 SIC,MRSA strain USA300 [5]; [21],0.125 µg/mL
same,Fold reduction in Compound 217 MIC,MRSA strain USA300 [5]; [21],4
same,Compound 217 SIC,MRSA strain USA300 [5]; [22],0.0625 µg/mL
same,Fold reduction in Compound 217 MIC,MRSA strain USA300 [5]; [22],8
same,Compound 217 SIC,MRSA strain USA300 [5]; [23],0.125 µg/mL
same,Fold reduction in Compound 217 MIC,MRSA strain USA300 [5]; [23],4
same,Compound 217 SIC,MRSA strain USA300 [5]; [24],0.125 µg/mL
same,Fold reduction in Compound 217 MIC,MRSA strain USA300 [5]; [24],4
same,Compound 217 SIC,MRSA strain USA300 [5]; [25],0.0625 µg/mL
same,Fold reduction in Compound 217 MIC,MRSA strain USA300 [5]; [25],8
same,Compound 217 SIC,MRSA strain USA300 [5]; [26],0.03125 µg/mL
same,Fold reduction in Compound 217 MIC,MRSA strain USA300 [5]; [26],16
same,Compound 217 SIC,MRSA strain USA300 [5]; [27],0.03125 µg/mL
same,Fold reduction in Compound 217 MIC,MRSA strain USA300 [5]; [27],16
same,Compound 217 SIC,MRSA strain USA300 [5]; [28],0.03125 µg/mL
same,Fold reduction in Compound 217 MIC,MRSA strain USA300 [5]; [28],16
same,Compound 217 SIC,MRSA strain USA300 [5]; [29],0.125 µg/mL
same,Fold reduction in Compound 217 MIC,MRSA strain USA300 [5]; [29],4
same,Compound 217 SIC (μg/ml),MRSA strain USA300 [5]; [30],≦0.0039 μg/ml
same,Fold reduction in Compound 217 MIC,MRSA strain USA300 [5]; [30],>128
same,Compound 217 SIC,MRSA strain USA300 [5]; [31],0.03125 µg/mL
same,Fold reduction in Compound 217 MIC,MRSA strain USA300 [5]; [31],16
same,Compound 217 SIC,MRSA strain USA300 [5]; [32],0.25 µg/mL
same,Fold reduction in Compound 217 MIC,MRSA strain USA300 [5]; [32],2
same,Compound 217 SIC,MRSA strain USA300 [5]; [33],0.01563 µg/mL
same,Fold reduction in Compound 217 MIC,MRSA strain USA300 [5]; [33],32
same,Compound 217 SIC,MRSA strain USA300 [5]; [34],0.125 µg/mL
same,Fold reduction in Compound 217 MIC,MRSA strain USA300 [5]; [34],4
same,Compound 217 SIC,MRSA strain USA300 [5]; [35],0.125 µg/mL
same,Fold reduction in Compound 217 MIC,MRSA strain USA300 [5]; [35],4
same,Compound 217 SIC,MRSA strain USA300 [5]; [36],0.03125 µg/mL
same,Fold reduction in Compound 217 MIC,MRSA strain USA300 [5]; [36],16
same,Compound 217 SIC,MRSA strain USA300 [5]; [37],0.0625 µg/mL
same,Fold reduction in Compound 217 MIC,MRSA strain USA300 [5]; [37],8
same,Compound 217 SIC,MRSA strain USA300 [5]; [38],0.125 µg/mL
same,Fold reduction in Compound 217 MIC,MRSA strain USA300 [5]; [38],4
same,Compound 217 SIC,MRSA strain USA300 [5]; [39],0.0625 µg/mL
same,Fold reduction in Compound 217 MIC,MRSA strain USA300 [5]; [39],8
same,Compound 217 MIC,"MRSA strain USA300 [5]; MRSA strain USA300, partner beta-lactam: None",0.5 µg/mL
same,synergy with partner beta-lactam antibiotics (SIC ≤ 1/4 MIC),MRSA strain USA300 [5]; partner beta-lactam at 1/4x its MIC,synergize
